The record followed here is patent US20210128566A1, “NOVEL FUNCTIONALIZED PURINE-2,6-DIONES AND THEIR USE IN MEDICINE” (THOMAS HELLEDAYS STIFTELSE FÖR MEDICINSK FORSKNING, priority 2017, published 2021).

The target of this assay is recombinant human NUDT5 (Homo sapiens, UniProt Q9UKK9). In words: NUDT5 inhibitor activity by malachite green reporter assay. It is filed as biochemical. Conditions: Table 3; 6 nM NUDT5, 50 μM ADP-Ribose, 15 minutes at room temperature. As for the experimental part: NUDT5 inhibitors were evaluated using a coupled enzymatic assay with detection of inorganic phosphate (Pi) using the malachite green assay. Following enzymatic hydrolysis of ADP-Ribose (Sigma-Aldrich A0572) by NUDT5, to yield AMP and ribose-5-phosphate, the latter product is continuously processed by a significant excess of alkaline phosphatase (Sigma-Aldrich, P0114). Formation of Pi is quantified based on the green complex (that absorbs at 630 nm) formed between malachite green and molybdate according to published procedure (Baykov, A. A., Evtushenko, O. A. and Avaeva, S. M., Anal Biochem, 171, 266-270 (1988)). Assay buffer consisted of 10 mM Tris-acetate at pH 8.0, 40 mM sodium chloride, 10 mM magnesium acetate, 0.005% Tween-20 and 1 mM dithiothreitol (DTT). The final conditions consisted of 6 nM recombinant human NUDT5, 50 μM ADP-Ribose and 10 U/ml of calf intestine alkaline phosphatase. The plates with compounds, enzymes and substrate were incubated at room temperature for 15 minutes, after which the reaction was terminated and the signal developed by the addition of the malachite green reagent using a MultiDrop (Thermo Scientific). Following vigorous shaking on plate shakers for a minimum of eight minutes the absorbance was read in a microplate reader (HidexSense) using a filter at 630 nm and a read time of 0.1 s per well. Inhibitors were used in dilutions from 100 μM to 1.7 nM in 3-fold dilution steps. Experiments were run in duplicate and confirmed in two independent experiments. IC50 values were determined by curve fitting using ExcelFit.
In general terms: In a reporter assay the amount or activity of a reporter protein is the signal.

By IC50 is commonly meant the midpoint of a concentration-inhibition curve. For `CC1CN(c2nc3c(c(=O)n(C)c(=O)n3C)n2Cc2nnc(-c3ccc(Cl)c(Cl)c3)o2)CC(C)N1` (centres unmarked) [Example 29, 7-{[5-(3,4-dichlorophenyl)-1,3,4-oxadiazol-2-yl]methyl}-8-(3,5-dimethylpiperazin-1-yl)-1,3-dimethyl-2,3,6,7-tetrahydro-1H-purine-2,6-dione], the IC50 was 43.8 nM. For `Cn1c(=O)c2c(nc(N3CCN(CCN)CC3)n2Cc2nnc(-c3ccc(Cl)c(Cl)c3)o2)n(C)c1=O` [Example 30, 8-[4-(2-aminoethyl)piperazin-1-yl]-7-{[5-(3,4-dichlorophenyl)-1,3,4-oxadiazol-2-yl]methyl}-1,3-dimethyl-2,3,6,7-tetrahydro-1H-purine-2,6-dione], the half-maximal inhibitory concentration (IC50) is 33.2 nM. Consider `Cn1c(=O)c2c(nc(N3CCN(CCO)CC3)n2Cc2nnc(-c3ccc(Cl)c(Cl)c3)o2)n(C)c1=O` [Example 31, 7-{[5-(3,4-dichlorophenyl)-1,3,4-oxadiazol-2-yl]methyl}-8-[4-(2-hydroxyethyl)piperazin-1-yl]-1,3-dimethyl-2,3,6,7-tetrahydro-1H-purine-2,6-dione], for which the IC50 came out at 106 nM. `CC(=O)N1CCN(c2nc3c(c(=O)n(C)c(=O)n3C)n2Cc2nnc(-c3ccc(Cl)c(Cl)c3)o2)CC1` [Example 32, 8-(4-acetylpiperazin-1-yl)-7-{[5-(3,4-dichlorophenyl)-1,3,4-oxadiazol-2-yl]methyl}-1,3-dimethyl-2,3,6,7-tetrahydro-1H-purine-2,6-dione]: the IC50 was found to be 76.7 nM. Take `CC1CN(c2nc3c(c(=O)n(C)c(=O)n3C)n2Cc2nnc(-c3ccc(Cl)c(Cl)c3)o2)CCN1` (centres unmarked) [Example 33, 7-{[5-(3,4-dichlorophenyl)-1,3,4-oxadiazol-2-yl]methyl}-1,3-dimethyl-8-(3-methylpiperazin-1-yl)-2,3,6,7-tetrahydro-1H-purine-2,6-dione]: the IC50 turned out to be 17.8 nM. As to `Cn1c(=O)c2c(nc(N3CCC(O)C3)n2Cc2nnc(-c3ccc(Cl)c(Cl)c3)o2)n(C)c1=O` (centres unmarked) [Example 34, 7-{[5-(3,4-dichlorophenyl)-1,3,4-oxadiazol-2-yl]methyl}-8-(3-hydroxypyrrolidin-1-yl)-1,3-dimethyl-2,3,6,7-tetrahydro-1H-purine-2,6-dione], the IC50 was 24.7 nM. For `Cn1c(=O)c2c(nc(N3CCC3)n2Cc2nnc(-c3ccc(Cl)c(Cl)c3)o2)n(C)c1=O` [Example 36, 8-(azetidin-1-yl)-7-{[5-(3,4-dichlorophenyl)-1,3,4-oxadiazol-2-yl]methyl}-1,3-dimethyl-2,3,6,7-tetrahydro-1H-purine-2,6-dione], the IC50 is 34 nM. On to `Cn1c(=O)c2c(nc(N3CCC(O)CC3)n2Cc2nnc(-c3ccc(Cl)c(Cl)c3)o2)n(C)c1=O` [Example 37, 7-{[5-(3,4-dichlorophenyl)-1,3,4-oxadiazol-2-yl]methyl}-8-(4-hydroxypiperidin-1-yl)-1,3-dimethyl-2,3,6,7-tetrahydro-1H-purine-2,6-dione], for which the IC50 was determined as 19.8 nM. As for `Cn1c(=O)c2c(nc(N3CCC(CN)CC3)n2Cc2nnc(-c3ccc(Cl)c(Cl)c3)o2)n(C)c1=O` [Example 38, 8-[4-(aminomethyl)piperidin-1-yl]-7-{[5-(3,4-dichlorophenyl)-1,3,4-oxadiazol-2-yl)methyl}-1,3-dimethyl-2,3,6,7-tetrahydro-1H-purine-2,6-dione], the figure is 18.5 nM; as for `COC(=O)C1CCN(c2nc3c(c(=O)n(C)c(=O)n3C)n2Cc2nnc(-c3ccc(Cl)c(Cl)c3)o2)CC1` [Example 39, methyl 1-(7-{[5-(3,4-dichlorophenyl)-1,3,4-oxadiazol-2-yl]methyl}-1,3-dimethyl-2,6-dioxo-2,3,6,7-tetrahydro-1H-purin-8-yl)piperidine-4-carboxylate], 32.7 nM; as for `Cn1c(=O)c2c(nc(N3CCC(CO)CC3)n2Cc2nnc(-c3ccc(Cl)c(Cl)c3)o2)n(C)c1=O` [Example 40, 7-{[5-(3,4-dichlorophenyl)-1,3,4-oxadiazol-2-yl]methyl}-8-[4-(hydroxymethyl)piperidin-1-yl]-1,3-dimethyl-2,3,6,7-tetrahydro-1H-purine-2,6-dione], 20.3 nM.
